{"source": "patent US8735414B2", "about": "(priority 2009, dated 2014)", "key": {"[1]": {"test_system": "bicistronic HCV replicon (replicon RNA, GenBank Accession No. AJ242654)", "assay": "HCV Replicon Assay", "type": "cell-based", "conditions": "Hepatitis C virus, 72 h, read-out: Replicon IC50"}}}
{"smiles": "CC(C)NS(=O)(=O)c1cnc(-c2c(C#N)c3ccc(OC(F)(F)F)cc3n2C2CCC2)nc1", "note": "[compound 116, 2-[3-cyano-1-cyclobutyl-6-(trifluoromethoxy)-1H-indol-2-yl]-N-(propan-2-yl)pyrimidine-5-sulfonamide]", "values": [{"measurement": "IC50", "setting": "[1]", "result": "< 500", "unit": "nM"}, {"measurement": "melting point", "result": "200 to 203", "unit": "°C"}]}
{"smiles": "N#Cc1c(-c2ncc(S(=O)(=O)NC(CF)CF)cn2)n(CC2CC2)c2ccc(F)cc12", "note": "[compound 302, 2-[3-cyano-1-(cyclopropylmethyl)-5-fluoro-1H-indol-2-yl]-N-(1,3-difluoropropan-2-yl)pyrimidine-5-sulfonamide]", "values": [{"measurement": "IC50", "setting": "[1]", "result": "< 500", "unit": "nM"}, {"measurement": "melting point", "result": "216 to 221", "unit": "°C"}]}
{"smiles": "CC(C)n1c(-c2ccc(S(=O)(=O)N[C@@H](C)C3CC3)cn2)c(C#N)c2cc(F)ccc21", "note": "[compound 604, 6-[3-cyano-5-fluoro-1-(propan-2-yl)-1H-indol-2-yl]-N-[(1S)-1-cyclopropylethyl]pyridine-3-sulfonamide]", "values": [{"measurement": "IC50", "setting": "[1]", "result": "< 500", "unit": "nM"}, {"measurement": "melting point", "result": "138 to 143", "unit": "°C"}]}
{"smiles": "CCc1cc2c(cc1F)c(C#N)c(-c1ccc(S(=O)(=O)N[C@@H](C)C(F)(F)F)cn1)n2-c1cccc(Cl)c1", "note": "[compound 1018, 6-[1-(3-chlorophenyl)-3-cyano-6-ethyl-5-fluoro-1H-indol-2-yl]-N-[(2S)-1,1,1-trifluoropropan-2-yl]pyridine-3-sulfonamide]", "values": [{"measurement": "IC50", "setting": "[1]", "result": "< 500", "unit": "nM"}, {"measurement": "melting point", "result": "195 to 198", "unit": "°C"}]}
{"smiles": "CCc1cc2c(cc1F)c(C#N)c(-c1cc(C)c(S(=O)(=O)N[C@@H](C)C(F)(F)F)cn1)n2-c1ncccn1", "note": "[compound 851, 6-[3-cyano-6-ethyl-5-fluoro-1-(pyrimidin-2-yl)-1H-indol-2-yl]-4-methyl-N-[(2S)-1,1,1-trifluoropropan-2-yl]pyridine-3-sulfonamide]", "values": [{"measurement": "IC50", "setting": "[1]", "result": "< 500", "unit": "nM"}, {"measurement": "melting point", "result": "231 to 236", "unit": "°C"}]}
{"smiles": "Cc1nc(NS(=O)(=O)C(C)(C)C)ccc1-c1c(C(N)=O)c2cc(F)c(OC(F)F)cc2n1[C@@H](C)C1CC1", "note": "[compound 1096, 2-{6-[(tert-butylsulfonyl)amino]-2-methylpyridin-3-yl}-1-[(1S)-1-cyclopropylethyl]-6-(difluoromethoxy)-5-fluoro-1H-indole-3-carboxamide]", "values": [{"measurement": "IC50", "setting": "[1]", "result": "< 500", "unit": "nM"}, {"measurement": "melting point", "result": "147 to 151", "unit": "°C"}]}
{"smiles": "CCc1cc2c(cc1F)c(C(=O)O)c(-c1ncc(NS(=O)(=O)C(C)(C)C)cn1)n2C1CCCCC1", "note": "[compound 1028, 2-{5-[(tert-butylsulfonyl)amino]pyrimidin-2-yl}-1-cyclohexyl-6-ethyl-5-fluoro-1H-indole-3-carboxylic acid]", "values": [{"measurement": "IC50", "setting": "[1]", "result": "2000 to 5000", "unit": "nM"}, {"measurement": "melting point", "result": "236 to 237", "unit": "°C"}]}
{"smiles": "C[C@@H](NS(=O)(=O)c1ccc(-c2c(C#N)c3cc(F)c(C4CC4)cc3n2C2CCCC2)nc1)C(F)(F)F", "note": "[compound 662, 6-(3-cyano-1-cyclopentyl-6-cyclopropyl-5-fluoro-1H-indol-2-yl)-N-[(2R)-1,1,1-trifluoropropan-2-yl]pyridine-3-sulfonamide]", "values": [{"measurement": "IC50", "setting": "[1]", "result": "< 500", "unit": "nM"}, {"measurement": "melting point", "result": "180 to 181", "unit": "°C"}]}
{"smiles": "Cc1cc2c(cc1F)c(C#N)c(-c1ccc(S(=O)(=O)N[C@@H](C)C(F)(F)F)cn1)n2-c1cc(F)cc(F)n1", "note": "[compound 1001, 6-[3-cyano-1-(4,6-difluoropyridin-2-yl)-5-fluoro-6-methyl-1H-indol-2-yl]-N-[(2S)-1,1,1-trifluoropropan-2-yl]pyridine-3-sulfonamide]", "values": [{"measurement": "IC50", "setting": "[1]", "result": "< 500", "unit": "nM"}, {"measurement": "melting point", "result": "190.2 to 196.8", "unit": "°C"}]}
{"smiles": "Cc1ccc2c(c1)c(C#N)c(-c1ccc(S(=O)(=O)N[C@H](C)C(F)(F)F)cn1)n2CC1CC1", "note": "[compound 458, 6-[3-cyano-1-(cyclopropylmethyl)-5-methyl-1H-indol-2-yl]-N-[(2R)-1,1,1-trifluoropropan-2-yl]pyridine-3-sulfonamide]", "values": [{"measurement": "IC50", "setting": "[1]", "result": "< 500", "unit": "nM"}, {"measurement": "melting point", "result": "166 to 172", "unit": "°C"}]}
{"smiles": "CCn1c(-c2ccc(N(C(C)C)S(=O)(=O)CC)cn2)c(C#N)c2ccc(OC(C)C)cc21", "note": "[compound 282, N-{6-[3-cyano-1-ethyl-6-(propan-2-yloxy)-1H-indol-2-yl]pyridin-3-yl}-N-(propan-2-yl)ethanesulfonamide]", "values": [{"measurement": "IC50", "setting": "[1]", "result": "500 to 2000", "unit": "nM"}, {"measurement": "melting point", "result": "170 to 175", "unit": "°C"}]}
{"smiles": "Cc1ccc2c(C#N)c(-c3ccc(S(=O)(=O)NC(C)(C)C(F)(F)F)cn3)n(-c3ccccc3)c2c1", "note": "[compound 585, 6-(3-cyano-6-methyl-1-phenyl-1H-indol-2-yl)-N-(1,1,1-trifluoro-2-methylpropan-2-yl)pyridine-3-sulfonamide]", "values": [{"measurement": "IC50", "setting": "[1]", "result": "< 500", "unit": "nM"}, {"measurement": "melting point", "result": "210 to 212", "unit": "°C"}]}
{"smiles": "CCc1cc2c(cc1F)c(C#N)c(-c1ncc(S(=O)(=O)NC(CF)CF)cn1)n2C1CCCC1", "note": "[compound 638, 2-(3-cyano-1-cyclopentyl-6-ethyl-5-fluoro-1H-indol-2-yl)-N-(1,3-difluoropropan-2-yl)pyrimidine-5-sulfonamide]", "values": [{"measurement": "IC50", "setting": "[1]", "result": "< 500", "unit": "nM"}, {"measurement": "melting point", "result": "184 to 185", "unit": "°C"}]}
{"smiles": "CCc1ccc2c(C#N)c(-c3ccc(S(=O)(=O)N[C@@H](C)C4CC4)cn3)n(C3CCCC3)c2c1", "note": "[compound 312, 6-(3-cyano-1-cyclopentyl-6-ethyl-1H-indol-2-yl)-N-[(1S)-1-cyclopropylethyl]pyridine-3-sulfonamide]", "values": [{"measurement": "IC50", "setting": "[1]", "result": "500 to 2000", "unit": "nM"}, {"measurement": "melting point", "result": "147.5 to 148.5", "unit": "°C"}]}
{"smiles": "COc1ccc(-n2c(-c3ncc(S(=O)(=O)NC(CF)CF)cn3)c(C#N)c3cc(F)ccc32)cc1", "note": "[compound 337, 2-[3-cyano-5-fluoro-1-(4-methoxyphenyl)-1H-indol-2-yl]-N-(1,3-difluoropropan-2-yl)pyrimidine-5-sulfonamide]", "values": [{"measurement": "IC50", "setting": "[1]", "result": "500 to 2000", "unit": "nM"}, {"measurement": "melting point", "result": "209 to 211", "unit": "°C"}]}
{"smiles": "C[C@@H](NS(=O)(=O)c1cnc(-c2c(C#N)c3ccc(C4CC4)cc3n2C2CCC2)nc1)C(F)(F)F", "note": "[compound 180, 2-(3-cyano-1-cyclobutyl-6-cyclopropyl-1H-indol-2-yl)-N-[(2R)-1,1,1-trifluoropropan-2-yl]pyrimidine-5-sulfonamide]", "values": [{"measurement": "IC50", "setting": "[1]", "result": "500 to 2000", "unit": "nM"}, {"measurement": "melting point", "result": "211 to 212", "unit": "°C"}]}
{"smiles": "C[C@H](NS(=O)(=O)c1ccc(-c2c(C(N)=O)c3cc(F)c(OC(F)F)cc3n2C2CCCC2)nc1)C(F)(F)F", "note": "[compound 806, 1-cyclopentyl-6-(difluoromethoxy)-5-fluoro-2-(5-{[(2S)-1,1,1-trifluoropropan-2-yl]sulfamoyl}pyridin-2-yl)-1H-indole-3-carboxamide]", "values": [{"measurement": "IC50", "setting": "[1]", "result": "< 500", "unit": "nM"}, {"measurement": "melting point", "result": "220 to 222", "unit": "°C"}]}
{"smiles": "CCc1cc2c(cc1F)c(C#N)c(-c1ccc(S(=O)(=O)N[C@@H](C)C(F)(F)F)cn1)n2-c1nccs1", "note": "[compound 935, 6-[3-cyano-6-ethyl-5-fluoro-1-(1,3-thiazol-2-yl)-1H-indol-2-yl]-N-[(2S)-1,1,1-trifluoropropan-2-yl]pyridine-3-sulfonamide]", "values": [{"measurement": "IC50", "setting": "[1]", "result": "< 500", "unit": "nM"}, {"measurement": "melting point", "result": "187 to 191", "unit": "°C"}]}
{"smiles": "CC(NS(=O)(=O)c1ccc(-c2c(C#N)c3ccc(C4CC4)cc3n2C2CCCC2)nc1)C(F)(F)F", "note": "(centres unmarked) [compound 86, 6-(3-cyano-1-cyclopentyl-6-cyclopropyl-1H-indol-2-yl)-N-(1,1,1-trifluoropropan-2-yl)pyridine-3-sulfonamide]", "values": [{"measurement": "IC50", "setting": "[1]", "result": "< 500", "unit": "nM"}, {"measurement": "melting point", "result": "166 to 170", "unit": "°C"}]}
{"smiles": "CCc1cc2c(cc1F)c(C(N)=O)c(-c1ccc(S(=O)(=O)NC3(C(F)(F)F)CC3)cn1)n2C1CCCC1", "note": "[compound 872, 1-cyclopentyl-6-ethyl-5-fluoro-2-(5-{[1-(trifluoromethyl)cyclopropyl]sulfamoyl}pyridin-2-yl)-1H-indole-3-carboxamide]", "values": [{"measurement": "IC50", "setting": "[1]", "result": "< 500", "unit": "nM"}, {"measurement": "melting point", "result": "196 to 197", "unit": "°C"}]}
{"smiles": "Cc1cc2c(cc1F)c(C#N)c(-c1ccc(S(=O)(=O)NC(C)C)cn1)n2C1CCC1", "note": "[compound 655, 6-(3-cyano-1-cyclobutyl-5-fluoro-6-methyl-1H-indol-2-yl)-N-(propan-2-yl)pyridine-3-sulfonamide]", "values": [{"measurement": "IC50", "setting": "[1]", "result": "< 500", "unit": "nM"}, {"measurement": "melting point", "result": "222 to 226", "unit": "°C"}]}
{"smiles": "Cc1ccc2c(C#N)c(-c3ncc(S(=O)(=O)NC(C)C)cn3)n(CC3CC3)c2c1", "note": "[compound 168, 2-[3-cyano-1-(cyclopropylmethyl)-6-methyl-1H-indol-2-yl]-N-(propan-2-yl)pyrimidine-5-sulfonamide]", "values": [{"measurement": "IC50", "setting": "[1]", "result": "< 500", "unit": "nM"}, {"measurement": "melting point", "result": "245 to 247", "unit": "°C"}]}
{"smiles": "Cc1ccc2c(C#N)c(-c3ncc(S(=O)(=O)NC(CF)CF)cn3)n(C3CCC3)c2c1F", "note": "[compound 557, 2-(3-cyano-1-cyclobutyl-7-fluoro-6-methyl-1H-indol-2-yl)-N-(1,3-difluoropropan-2-yl)pyrimidine-5-sulfonamide]", "values": [{"measurement": "IC50", "setting": "[1]", "result": "< 500", "unit": "nM"}, {"measurement": "melting point", "result": "191 to 198", "unit": "°C"}]}
{"smiles": "Cc1cc2c(cc1F)c(C#N)c(-c1ccc(NS(=O)(=O)N[C@@H](C)C(F)(F)F)cn1)n2C1CCCC1", "note": "[compound 836, N-[6-(3-cyano-1-cyclopentyl-5-fluoro-6-methyl-1H-indol-2-yl)pyridin-3-yl]-N′-[(2S)-1,1,1-trifluoropropan-2-yl]sulfuric diamide]", "values": [{"measurement": "IC50", "setting": "[1]", "result": "500 to 2000", "unit": "nM"}, {"measurement": "melting point", "result": "206 to 208", "unit": "°C"}]}
{"smiles": "Cc1cc2c(cc1F)c(C(N)=O)c(-c1ccc(S(=O)(=O)N[C@@H](C)C(F)(F)F)cn1)n2C1CCCC1", "note": "[compound 700, 1-cyclopentyl-5-fluoro-6-methyl-2-(5-{[(2S)-1,1,1-trifluoropropan-2-yl]sulfamoyl}pyridin-2-yl)-1H-indole-3-carboxamide]", "values": [{"measurement": "IC50", "setting": "[1]", "result": "< 500", "unit": "nM"}, {"measurement": "melting point", "result": "244 to 246", "unit": "°C"}]}
{"smiles": "Cc1cc2c(cc1F)c(C#N)c(-c1ccc(S(=O)(=O)N[C@@H](C)C(F)(F)F)cn1)n2-c1ccc(F)c(C)n1", "note": "[compound 961, 6-[3-cyano-5-fluoro-1-(5-fluoro-6-methylpyridin-2-yl)-6-methyl-1H-indol-2-yl]-N-[(2S)-1,1,1-trifluoropropan-2-yl]pyridine-3-sulfonamide]", "values": [{"measurement": "IC50", "setting": "[1]", "result": "< 500", "unit": "nM"}, {"measurement": "melting point", "result": "240 to 246", "unit": "°C"}]}
{"smiles": "Cc1ccc2c(c1)c(C#N)c(-c1ccc(S(=O)(=O)N[C@@H](C)C3CC3)cn1)n2C1CCC1", "note": "[compound 201, 6-(3-cyano-1-cyclobutyl-5-methyl-1H-indol-2-yl)-N-[(1S)-1-cyclopropylethyl]pyridine-3-sulfonamide]", "values": [{"measurement": "IC50", "setting": "[1]", "result": "< 500", "unit": "nM"}, {"measurement": "melting point", "result": "173 to 178", "unit": "°C"}]}
{"smiles": "N#Cc1c(-c2ccc(S(=O)(=O)NC(CF)CF)cn2)n(-c2ccncc2)c2ccc(F)cc12", "note": "[compound 259, 6-[3-cyano-5-fluoro-1-(pyridin-4-yl)-1H-indol-2-yl]-N-(1,3-difluoropropan-2-yl)pyridine-3-sulfonamide]", "values": [{"measurement": "IC50", "setting": "[1]", "result": "< 500", "unit": "nM"}, {"measurement": "melting point", "result": "199 to 203", "unit": "°C"}]}
